Test results: the supplement of paper PMC9663587

Assays:
THZ-P1-2 = compound: CN(C)C/C=C/C(=O)NC1=CC=C(C=C1)C(=O)NC2=CC=CC(=C2)NC3=NC=NC(=C3)C4=CNC5=CC=CC=C54 [THZ-P1-2]
Ceritinib/LDK378 = compound: Cc1cc(Nc2ncc(Cl)c(Nc3ccccc3S(=O)(=O)C(C)C)n2)c(OC(C)C)cc1C1CCNCC1 [Ceritinib/LDK378]
Luminespib/NVP-AUY922 = compound: CCNC(=O)c1noc(-c2cc(C(C)C)c(O)cc2O)c1-c1ccc(CN2CCOCC2)cc1 [Luminespib/NVP-AUY922]
Saracatinib/AZD0530 = compound: CN1CCN(CCOc2cc(OC3CCOCC3)c3c(Nc4c(Cl)ccc5c4OCO5)ncnc3c2)CC1 [Saracatinib/AZD0530]
BSJ-01-175 = compound: CN(C)C/C=C/C(=O)Nc1ccc(O[C@@H]2CCC[C@@H](Nc3ncc(Cl)c(-c4c[nH]c5ccccc45)n3)C2)cc1 [BSJ-01-175]
[1] = compound: CCCCOc1c(C(=O)c2c(F)cc(C)cc2F)c[nH]c2nncc1-2
BSJ-03-123 = compound: CC(=O)c1c(C)c2cnc(Nc3ccc(N4CCN(CCOCCOCCOCCNC(=O)COc5cccc6c5C(=O)N(C5CCC(=O)NC5=O)C6=O)CC4)cn3)nc2n(C2CCCC2)c1=O [BSJ-03-123]; assay: increase in dead-cell fraction, 72 h; higher = more death;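 further: breast cancer cell lines in 384-well plates, stained with Hoechst plus LIVE/DEAD far red dye and imaged, cells above an LDR intensity threshold counted dead, Hoechst-negative corpses included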
Neratinib/HKI272 = compound: CCOc1cc2ncc(C#N)c(Nc3ccc(OCc4ccccn4)c(Cl)c3)c2cc1NC(=O)/C=C/CN(C)C [Neratinib/HKI272]; assay: as above
[2] = compound: CCc1cnn2c(NCc3ccc[n+]([O-])c3)cc(N3CCCC[C@H]3CCO)nc12; assay: as above
[3] = compound: CCN1CCN(Cc2ccc(Nc3ncc(F)c(-c4cc(F)c5nc(C)n(C(C)C)c5c4)n3)nc2)CC1; assay: as above
THZ1 = compound: CN(C)C/C=C/C(=O)Nc1ccc(C(=O)Nc2cccc(Nc3ncc(Cl)c(-c4c[nH]c5ccccc45)n3)c2)cc1 [THZ1]; assay: as above
[4] = compound: CC(=O)c1c(C)c2cnc(Nc3ccc(N4CCNCC4)cn3)nc2n(C2CCCC2)c1=O; assay: as above
THZ531 = compound: CN(C)C/C=C/C(=O)Nc1ccc(C(=O)N2CCC[C@@H](Nc3ncc(Cl)c(-c4c[nH]c5ccccc45)n3)C2)cc1 [THZ531]; assay: as above
LEE011/Ribociclib = compound: CN(C)C(=O)c1cc2cnc(Nc3ccc(N4CCNCC4)cn3)nc2n1C1CCCC1 [LEE011/Ribociclib]; assay: as above
Flavopiridol = compound: CN1CC[C@H](c2c(O)cc(O)c3c(=O)cc(-c4ccccc4Cl)oc23)[C@H](O)C1 [Flavopiridol]; assay: as above
YKL-5-124 = compound: C=CC(=O)Nc1ccc(C(=O)Nc2[nH]nc3c2CN(C(=O)N[C@H](CN(C)C)c2ccccc2)C3(C)C)cc1 [YKL-5-124]; assay: as above
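Wherever GR50, 72 h is given: breast cancer and non-malignant breast epithelial cell lines, Deep Dye Drop or Dye Drop imaging, nine half-log doses, GR normalized to time-zero plates and DMSO-only controls.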

PDX1328
GR50, 72 h (THZ-P1-2): > 10 µM | GR50, 72 h (Ceritinib/LDK378): 0.629 µM | GR50, 72 h (Luminespib/NVP-AUY922): 0.00288 µM | GR50, 72 h (Saracatinib/AZD0530): 0.987 µM | GR50, 72 h (BSJ-01-175): 0.00722 µM | GR50, 72 h [1]: > 10 µM | increase in dead-cell fraction (BSJ-03-123; 0.001 µM): -0.0042 | increase in dead-cell fraction (BSJ-03-123; 0.003162 µM): -0.0045 | increase in dead-cell fraction (BSJ-03-123; 0.01 µM): -0.0076 | increase in dead-cell fraction (BSJ-03-123; 0.03162 µM): -0.0013 | increase in dead-cell fraction (BSJ-03-123; 0.1 µM): -0.006 | increase in dead-cell fraction (BSJ-03-123; 0.3162 µM): -0.0065 | increase in dead-cell fraction (BSJ-03-123; 1 µM): -0.0104 | increase in dead-cell fraction (BSJ-03-123; 3.162 µM): -0.0015 | increase in dead-cell fraction (BSJ-03-123; 10 µM): 0.0283 | increase in dead-cell fraction (Neratinib/HKI272; 0.0003162 µM): 0.0026 | increase in dead-cell fraction (Neratinib/HKI272; 0.001 µM): 0.0005 | increase in dead-cell fraction (Neratinib/HKI272; 0.003162 µM): 0.002 | increase in dead-cell fraction (Neratinib/HKI272; 0.01 µM): -0.0007 | increase in dead-cell fraction (Neratinib/HKI272; 0.03162 µM): 0.0044 | increase in dead-cell fraction (Neratinib/HKI272; 0.1 µM): 0.0093 | increase in dead-cell fraction (Neratinib/HKI272; 0.3162 µM): 0.0044 | increase in dead-cell fraction (Neratinib/HKI272; 1 µM): 0.0158 | increase in dead-cell fraction (Neratinib/HKI272; 3.162 µM): 0.0733 | increase in dead-cell fraction ([2]; 0.0001 µM): -0.0005 | increase in dead-cell fraction ([2]; 0.0003162 µM): 0.0028 | increase in dead-cell fraction ([2]; 0.001 µM): -0.0033 | increase in dead-cell fraction ([2]; 0.003162 µM): -0.0053 | increase in dead-cell fraction ([2]; 0.01 µM): -0.0021 | increase in dead-cell fraction ([2]; 0.03162 µM): 0.113 | increase in dead-cell fraction ([2]; 0.1 µM): 0.187 | increase in dead-cell fraction ([2]; 0.3162 µM): 0.19 | increase in dead-cell fraction ([2]; 1 µM): 0.213 | increase in dead-cell fraction ([3]; 0.001 µM): 0.0018 | increase in dead-cell fraction ([3]; 0.003162 µM): -0.0052 | increase in dead-cell fraction ([3]; 0.01 µM): 0.0039 | increase in dead-cell fraction ([3]; 0.03162 µM): 0.0167 | increase in dead-cell fraction ([3]; 0.1 µM): 0.0116 | increase in dead-cell fraction ([3]; 0.3162 µM): 0.0089 | increase in dead-cell fraction ([3]; 1 µM): 0.0192 | increase in dead-cell fraction ([3]; 3.162 µM): 0.029 | increase in dead-cell fraction ([3]; 10 µM): 0.475 | increase in dead-cell fraction (THZ1; 0.0001 µM): -0.0047 | increase in dead-cell fraction (THZ1; 0.0003162 µM): -0.0031 | increase in dead-cell fraction (THZ1; 0.001 µM): -0.0014 | increase in dead-cell fraction (THZ1; 0.003162 µM): -0.0053 | increase in dead-cell fraction (THZ1; 0.01 µM): 0.0031 | increase in dead-cell fraction (THZ1; 0.03162 µM): 0.0436 | increase in dead-cell fraction (THZ1; 0.1 µM): 0.123 | increase in dead-cell fraction (THZ1; 0.3162 µM): 0.225 | increase in dead-cell fraction (THZ1; 1 µM): 0.432 | increase in dead-cell fraction ([4]; 0.0003162 µM): -0.0028 | increase in dead-cell fraction ([4]; 0.001 µM): 0.0004 | increase in dead-cell fraction ([4]; 0.003162 µM): -0.0023 | increase in dead-cell fraction ([4]; 0.01 µM): 0.0019 | increase in dead-cell fraction ([4]; 0.03162 µM): -0.005 | increase in dead-cell fraction ([4]; 0.1 µM): 0.0014 | increase in dead-cell fraction ([4]; 0.3162 µM): -0.0028 | increase in dead-cell fraction ([4]; 1 µM): 0.0026 | increase in dead-cell fraction ([4]; 3.162 µM): 0.0055 | increase in dead-cell fraction (THZ531; 0.0001 µM): -0.0004 | increase in dead-cell fraction (THZ531; 0.0003162 µM): -0.0097 | increase in dead-cell fraction (THZ531; 0.001 µM): 0.0015 | increase in dead-cell fraction (THZ531; 0.003162 µM): 0 | increase in dead-cell fraction (THZ531; 0.01 µM): 0.003 | increase in dead-cell fraction (THZ531; 0.03162 µM): -0.0033 | increase in dead-cell fraction (THZ531; 0.1 µM): 0.0477 | increase in dead-cell fraction (THZ531; 0.3162 µM): 0.199 | increase in dead-cell fraction (THZ531; 1 µM): 0.186 | increase in dead-cell fraction (LEE011/Ribociclib; 0.001 µM): -0.0001 | increase in dead-cell fraction (LEE011/Ribociclib; 0.003162 µM): -0.0049 | increase in dead-cell fraction (LEE011/Ribociclib; 0.01 µM): -0.0091 | increase in dead-cell fraction (LEE011/Ribociclib; 0.03162 µM): -0.0001 | increase in dead-cell fraction (LEE011/Ribociclib; 0.1 µM): 0.0131 | increase in dead-cell fraction (LEE011/Ribociclib; 0.3162 µM): 0.0012 | increase in dead-cell fraction (LEE011/Ribociclib; 1 µM): -0.0011 | increase in dead-cell fraction (LEE011/Ribociclib; 3.162 µM): 0.005 | increase in dead-cell fraction (LEE011/Ribociclib; 10 µM): 0.0126 | increase in dead-cell fraction (Flavopiridol; 0.0001 µM): 0.003 | increase in dead-cell fraction (Flavopiridol; 0.0003162 µM): -0.0035 | increase in dead-cell fraction (Flavopiridol; 0.001 µM): -0.0003 | increase in dead-cell fraction (Flavopiridol; 0.003162 µM): -0.0025 | increase in dead-cell fraction (Flavopiridol; 0.01 µM): -0.0027 | increase in dead-cell fraction (Flavopiridol; 0.03162 µM): -0.0044 | increase in dead-cell fraction (Flavopiridol; 0.1 µM): -0.0014 | increase in dead-cell fraction (Flavopiridol; 0.3162 µM): 0.0342 | increase in dead-cell fraction (Flavopiridol; 1 µM): 0.348 | increase in dead-cell fraction (YKL-5-124; 0.001 µM): 0.0057 | increase in dead-cell fraction (YKL-5-124; 0.003162 µM): 0.0011 | increase in dead-cell fraction (YKL-5-124; 0.01 µM): 0.0128 | increase in dead-cell fraction (YKL-5-124; 0.03162 µM): 0.0082 | increase in dead-cell fraction (YKL-5-124; 0.1 µM): 0.0045 | increase in dead-cell fraction (YKL-5-124; 0.3162 µM): 0.0085 | increase in dead-cell fraction (YKL-5-124; 1 µM): 0.0121 | increase in dead-cell fraction (YKL-5-124; 3.162 µM): 0.0229 | increase in dead-cell fraction (YKL-5-124; 10 µM): 0.0663
